Measurements from patent publication US20180206491A1, “SUBSTITUTED CYCLIC ARYL AND HETEROARYL CARBOXYLIC ACID HYDRAZIDES OR SALTS THEREOF AND USE THEREOF TO INCREASE STRESS TOLERANCE IN PLANTS” (Bayer CropScience Aktiengesellschaft, priority 2015, published 2018).

Key:
Details in all cases: spray application
Triticum aestivum [1] = test: In vivo analyses Part B: drought stress, appearance versus stressed control plants in categories; parameters: key: 0: no positive effect; +: slight positive effect; ++: clear positive effect; +++: strong positive effect
Description: (§1) Seeds of monocotyledonous and dicotyledonous crop plants were sown in sandy loam in plastic pots, covered with soil or sand and cultivated in a greenhouse under good growth conditions. The test plants are treated at the early leaf stage (BBCH10-BBCH13). To assure uniform water supply before commencement of stress, the potted plants were supplied with water by dam irrigation prior to substance application. The inventive compounds were first formulated as wettable powders (WP) or dissolved in a solvent mixture. The further dilution was effected with water supplemented with 0.2% wetting agent (e.g. agrotin). The finished spray liquor was sprayed onto the green parts of the plant at an equivalent water application rate of 600 l/ha. Substance application was followed immediately by stress treatment of the plants. Drought stress was induced by gradual drying out under the following conditions: “Day”: 14 hours with illumination at ˜26-30° C. “Night”: 10 hours without illumination at ˜18-20° C. The duration of the respective stress phases was guided mainly by the condition of the stressed control plants. It was ended (by re-irrigating and transfer to a greenhouse with good growth conditions) as soon as irreversible damage was observed on the stressed control plants. The end of the stress phase was followed by an about 4-7-day recovery phase, during which the plants were once again kept under good growth conditions in a greenhouse. The duration of the recovery phase was guided mainly by when the trial plants had attained a state which enabled visual scoring of potential effects, and was therefore variable. Once this juncture had been reached, the appearance of the plants treated with test substances was recorded in comparison to the stressed control plants by the following categories: • 0 no positive effect • + slight positive effect • ++ clear positive effect • +++ strong positive effect In order to rule out any influence on the effects observed by any fungicidal or insecticidal action of the test compounds, it was additionally ensured that the tests proceeded without fungal infection or insect infestation. The values reported in tables B-1 and B-2 below are mean values of the results from at least three repeats. Effects of selected compounds of the general formula (I) under drought stress according to the following tables B-1 and B-2: […]

Brassica napus [2] = test: as above; parameters: key: 0: no positive effect; +: slight positive effect; ++: clear positive effect; +++: strong positive effect
Description: as §1

Triticum aestivum [3] = test: In vivo analyses: drought stress, visual scoring of damage, efficacy EF
Description: (§2) Seeds of monocotyledonous and dicotyledonous crop plants were sown in sandy loam in wood-fiber or plastic pots, covered with soil or sand and cultivated in a greenhouse under good growth conditions. The trial plants were treated at the early leaf stage (BBCH10-BBCH13). To assure uniform water supply before commencement of stress, the potted plants were supplied with water by dam irrigation prior to substance application. The inventive compounds formulated in the form of wettable powders (WP) were sprayed onto the green parts of the plants as an aqueous suspension at an equivalent water application rate of 600 I/ha with addition of 0.2% wetting agent (e.g. agrotin). Substance application was followed immediately by stress treatment of the plants. For this purpose, the wood-fiber pots were transferred in plastic inserts in order to prevent them from subsequently drying out too quickly. Drought stress was induced by gradual drying out under the following conditions: “Day”: 14 hours with illumination at ˜26-30° C. “Night”: 10 hours without illumination at ˜18-20° C. The duration of the respective stress phases was guided mainly by the condition of the stressed control plants. It was ended (by re-irrigating and transfer to a greenhouse with good growth conditions) as soon as irreversible damage was observed on the stressed control plants. The end of the stress phase was followed by an about 4-7-day recovery phase, during which the plants were once again kept under good growth conditions in a greenhouse. The duration of the recovery phase was guided mainly by when the trial plants had attained a state which enabled visual scoring of potential effects, and is therefore variable. Once this juncture was reached, the intensities of damage were scored visually in comparison to untreated, unstressed controls of the same age. The damage intensity was at first assessed in percent. These values were then used to calculate the efficacy of the test compounds by the following formula: [formula] EF: Efficacy DIs: Damage intensity of the stressed control plants DIt: Damage intensity of the stressed plants treated with test compound The values reported in tables A-1 to A-3 below are mean values from at least one trial with at least two repeats, showing the effects of selected compounds of the general formula (I) under drought stress on various crop plants.

Zea mays = test: as above
Description: as §2

Brassica napus [4] = test: as above
Description: as §2

## CN1CCN(N(Cc2ccccc2Cl)C(=O)c2cnccc2C(F)(F)F)CC1 [B6-1]
Triticum aestivum [1]; 250 g/ha
  Effect (TRZAS): +

## CN1CCN(N(Cc2ccccc2C#N)C(=O)c2cnccc2C(F)(F)F)CC1 [B6-61]
Triticum aestivum [1]; 250 g/ha
  Effect (TRZAS): +

## COC1CCCN(N(Cc2nccc(Cl)c2Cl)C(=O)c2ccccc2C(F)(F)F)C1 (stereo not shown) [A13-40]
Triticum aestivum [1]; 250 g/ha
  Effect (TRZAS): +

## O=C(c1cnccc1C(F)(F)F)N(Cc1ncc(C(F)(F)F)cc1Cl)N1CCCC1 [B2-36]
Brassica napus [2]; 250 g/ha
  Effect (BRSNS): +
Triticum aestivum [1]; 25 g/ha
  Effect (TRZAS): +

## N#Cc1ccccc1CN(C(=O)c1ccncc1)N1CCCCC1 [C4-61]
Triticum aestivum [3]; 25 g/ha
  EF [%] (TRZAS): >5%
Zea mays; 250 g/ha
  EF [%] (ZEAMX): >5%

## COC1CCN(N(Cc2ccccn2)C(=O)c2ccccc2C(F)(F)F)C1 (stereo not shown) [A3-21, N-(3-Methoxypyrrolidin-1-yl)-N-(pyridin-2-ylmethyl)-2-(trifluoromethyl)benzamide]
Zea mays; 250 g/ha
  EF [%] (ZEAMX): >5%

## COC1CCCN(N(Cc2ccccc2Cl)C(=O)c2ccccc2C(F)(F)F)C1 (stereo not shown) [A13-1]
Brassica napus [2]; 250 g/ha
  Effect (BRSNS): +
Triticum aestivum [1]; 250 g/ha
  Effect (TRZAS): +

## CC(c1ccc(F)cc1)N(C(=O)c1cnccc1C(F)(F)F)N1CCCC1 (stereo not shown) [B2-159]
Brassica napus [2]; 250 g/ha
  Effect (BRSNS): +
Triticum aestivum [1]; 250 g/ha
  Effect (TRZAS): +

## COC1CCCN(N(Cc2ccccn2)C(=O)c2ccccc2C(F)(F)F)C1 (stereo not shown) [A13-21]
Triticum aestivum [1]; 250 g/ha
  Effect (TRZAS): +

## CN1CCN(N(Cc2ccccn2)C(=O)c2cnccc2C(F)(F)F)CC1 [B6-21]
Brassica napus [2]; 250 g/ha
  Effect (BRSNS): +
Triticum aestivum [1]; 250 g/ha
  Effect (TRZAS): +

## COC1CCCN(N(Cc2ccccc2Cl)C(=O)c2cnccc2C(F)(F)F)C1 (stereo not shown) [B7-1]
Triticum aestivum [1]; 25 g/ha
  Effect (TRZAS): ++

## COc1ccccc1C(=O)N(Cc1ccc(F)cc1F)N1CCCC1 [A9-15]
Triticum aestivum [1]; 25 g/ha
  Effect (TRZAS): +

## CN1CCN(N(Cc2nccc(Cl)c2Cl)C(=O)c2ccccc2C(F)(F)F)CC1 [A12-40]
Brassica napus [2]; 250 g/ha
  Effect (BRSNS): +
Triticum aestivum [1]; 25 g/ha
  Effect (TRZAS): +

## O=C(c1ccncc1)N(Cc1ccccc1Cl)N1CCOCC1 [C7-1]
Brassica napus [4]; 2.5 g/ha
  EF [%] (BRSNS): >5%

## N#Cc1ccccc1CN(C(=O)c1cnccc1C(F)(F)F)N1CCOCC1 [B5-61, N-(2-Cyanobenzyl)-N-(morpholin-4-yl)-4-(trifluoromethyl)-nicotinamide]
Brassica napus [2]; 250 g/ha
  Effect (BRSNS): +
Triticum aestivum [1]; 250 g/ha
  Effect (TRZAS): +

## COC1CCCN(N(Cc2ccccn2)C(=O)c2cnccc2C(F)(F)F)C1 (stereo not shown) [B7-21]
Brassica napus [2]; 25 g/ha
  Effect (BRSNS): +

## COc1c(C)cnc(CN(C(=O)c2ccc(F)cc2C(F)(F)F)N2CCCC2)c1C [A6-37]
Brassica napus [4]; 2.5 g/ha
  EF [%] (BRSNS): >5%

## CN1CCN(N(Cc2ccccn2)C(=O)c2ccccc2C(F)(F)F)CC1 [A12-21, N—(N-Methylpyridazin-1-yl)-N-(pyridin-2-ylmethyl)-2-(trifluoromethyl)-benzamide]
Brassica napus [2]; 250 g/ha
  Effect (BRSNS): +

## CN1CCN(N(Cc2ccccc2C#N)C(=O)c2ccncc2)CC1 [C6-61]
Brassica napus [4]; 2.5 g/ha
  EF [%] (BRSNS): >5%
Triticum aestivum [3]; 25 g/ha
  EF [%] (TRZAS): >5%

## O=C(c1ccc(F)cc1C(F)(F)F)N(Cc1ccccc1Cl)N1CCCC1 [A6-1]
Triticum aestivum [3]; 25 g/ha
  EF [%] (TRZAS): >5%
Zea mays; 250 g/ha
  EF [%] (ZEAMX): >5%

## COc1c(C)cnc(CN(C(=O)c2ccccc2C(F)(F)F)N2CCCC2)c1C [A2-37]
Triticum aestivum [3]; 250 g/ha
  EF [%] (TRZAS): >5%
Zea mays; 25 g/ha
  EF [%] (ZEAMX): >5%

## O=C(c1ccccc1Cl)N(Cc1ccc(Cl)nc1)N1CCCC1 [A7-94]
Triticum aestivum [1]; 25 g/ha
  Effect (TRZAS): +

## O=C(c1ccccc1C(F)(F)F)N(Cc1ccc2ccccc2n1)N1CCCC1 [A2-122]
Brassica napus [4]; 250 g/ha
  EF [%] (BRSNS): >5%
Triticum aestivum [3]; 250 g/ha
  EF [%] (TRZAS): >5%
Zea mays; 250 g/ha
  EF [%] (ZEAMX): >5%

## O=C(c1cnccc1C(F)(F)F)N(Cc1ccccn1)N1CCOCC1 [B5-21]
Brassica napus [2]; 250 g/ha
  Effect (BRSNS): +

## N#Cc1ccccc1CN(C(=O)c1cccc2nnsc12)N1CCCC1 [A14-61]
Brassica napus [2]; 250 g/ha
  Effect (BRSNS): +
Triticum aestivum [1]; 25 g/ha
  Effect (TRZAS): +

## COC1CCCN(N(Cc2ccccc2C#N)C(=O)c2ccccc2C(F)(F)F)C1 (stereo not shown) [A13-61]
Brassica napus [2]; 25 g/ha
  Effect (BRSNS): +

## O=C(c1cnccc1C(F)(F)F)N(Cc1ccc(F)cc1F)N1CCCC1 [B2-15]
Triticum aestivum [1]; 250 g/ha
  Effect (TRZAS): +

## O=C(c1cnccc1C(F)(F)F)N(Cc1ccc(Cl)nc1)N1CCCC1 [B2-94]
Triticum aestivum [1]; 25 g/ha
  Effect (TRZAS): +

## N#Cc1ccccc1CN(C(=O)c1cnccc1C(F)(F)F)N1CCCC1 [B2-61, N-(2-Cyanobenzyl)-N-(pyrrolidin-1-yl)-4-(trifluoromethyl)nicotinamide]
Brassica napus [4]; 25 g/ha
  EF [%] (BRSNS): >5%
Triticum aestivum [3]; 25 g/ha
  EF [%] (TRZAS): >5%
Zea mays; 250 g/ha
  EF [%] (ZEAMX): >5%

## COC1CCCN(N(Cc2cccc(Cl)c2)C(=O)c2ccncc2)C1 (stereo not shown) [C8-2]
Brassica napus [4]; 250 g/ha
  EF [%] (BRSNS): >5%

## O=C(c1ccc(Cl)cc1Cl)N(Cc1ccc(F)cc1F)N1CCCC1 [A8-15]
Triticum aestivum [1]; 25 g/ha
  Effect (TRZAS): +

## O=C(c1ccc(Cl)c(Cl)c1)N(Cc1cc(Cl)ccc1Cl)N1CCCC1 [A5-6]
Zea mays; 250 g/ha
  EF [%] (ZEAMX): >5%

## COC1CCCN(N(Cc2ccccc2C#N)C(=O)c2cnccc2C(F)(F)F)C1 (stereo not shown) [B7-61]
Triticum aestivum [1]; 250 g/ha
  Effect (TRZAS): +

## N#Cc1ccccc1CN(C(=O)c1ccnnc1)N1CCCC1 [F1-61]
Brassica napus [2]; 25 g/ha
  Effect (BRSNS): +
Triticum aestivum [1]; 100 g/ha
  Effect (TRZAS): +

## O=C(c1ccccc1Cl)N(Cc1ccc(F)cc1F)N1CCCC1 [A7-15]
Brassica napus [2]; 250 g/ha
  Effect (BRSNS): +
Triticum aestivum [1]; 25 g/ha
  Effect (TRZAS): +

## O=C(c1ccccc1C(F)(F)F)N(Cc1ccc(F)cc1F)N1CCCC1 [A2-15]
Brassica napus [2]; 250 g/ha
  Effect (BRSNS): +
Triticum aestivum [1]; 250 g/ha
  Effect (TRZAS): +

## CN1CCN(N(Cc2ccccc2Cl)C(=O)c2ccccc2C(F)(F)F)CC1 [A12-1]
Triticum aestivum [1]; 250 g/ha
  Effect (TRZAS): +

## COC1CCCN(N(Cc2cccc(C#N)c2)C(=O)c2ccncc2)C1 (stereo not shown) [C8-62]
Brassica napus [4]; 2.5 g/ha
  EF [%] (BRSNS): >5%
Zea mays; 250 g/ha
  EF [%] (ZEAMX): >5%

## O=C(c1cnccc1C(F)(F)F)N(Cc1ccccc1F)N1CCOCC1 [B5-11]
Brassica napus [2]; 250 g/ha
  Effect (BRSNS): +
